# Legend:
# [1] = Acid neutralization test of tablets, time for pH to rise to 7 (Example 1); type: physicochemical; conditions: 840 mg tablet, basket 75 rpm, 50 ml SGF + 50 ml water
# Method: 840 mg of each of magnesium hydroxide, tromethamine, and carbicarb were separately compressed into tablets utilizing a carver press having a 13 mm die at a 1 second dwell time and 500 pounds of compression force. Also, a first mixture containing 420 mg of magnesium hydroxide and 420 mg of tromethamine was also compressed into tablet-form using the method described above. Additionally, a second mixture containing 420 mg of magnesium hydroxide and 420 mg of carbicarb was compressed into tablet-form as previously described.
# Each of the five different preparations was tested separately in the following manner. Tablets of each preparation were placed in a USP dissolution apparatus basket which was then attached to a spindle. The stirring component of the apparatus was set to rotate the basket at a speed of approximately 75 rpm. The loaded, rotating basket was then immersed into a beaker containing 50 ml of SGF and 50 ml of distilled de-ionized water. The pH of the medium in the beaker was monitored continuously throughout the test procedure utilizing a micro pH electrode.
# [2] = Degradation of lansoprazole as a function of pH at 37 degrees C.; type: physicochemical; conditions: for half-life: buffer
# Source text: For example, lansoprazole is a substituted benzimidaole that is an acid labile pharmaceutical compound that inhibits gastric acid secretions. The affect of gastric pH on the degradation of an acid-labile drug such as lansoprazole is conveyed in Table 1. The data shown in Table 1 was collected at 37 degrees C., wherein “K” reflects the first order degradation constant.
"half-life ([2]; pH 5, 37 degrees C.)","half-life ([2]; pH 6, 37 degrees C.)","half-life ([2]; pH 7, 37 degrees C.)","half-life ([2]; pH 8, 37 degrees C.)","half-life ([2]; pH 9, 37 degrees C.)","% Drug Remaining After 30 Minutes ([2]; pH 5, 37 degrees C.)","K (first order degradation constant) ([2]; pH 5, 37 degrees C.)","% Drug Remaining After 30 Minutes ([2]; pH 6, 37 degrees C.)","K (first order degradation constant) ([2]; pH 6, 37 degrees C.)","% Drug Remaining After 30 Minutes ([2]; pH 7, 37 degrees C.)","K (first order degradation constant) ([2]; pH 7, 37 degrees C.)","% Drug Remaining After 30 Minutes ([2]; pH 8, 37 degrees C.)","K (first order degradation constant) ([2]; pH 8, 37 degrees C.)","% Drug Remaining After 30 Minutes ([2]; pH 9, 37 degrees C.)","K (first order degradation constant) ([2]; pH 9, 37 degrees C.)",Compound,Time to Raise the pH of SGF to 7 at 37 degrees C. [1]
–,–,–,–,–,–,–,–,–,–,–,–,–,–,–,[Mg+2].[OH-].[OH-] [Magnesium hydroxide],565 seconds
–,–,–,–,–,–,–,–,–,–,–,–,–,–,–,"NC(CO)(CO)CO [Tromethamine (TRIS), Tromethamine]",75 seconds
0.52 h,3.4 h,18 h,37 h,78 h,51.37%,1.33 hr.^−1,90.30%,0.20 hr.^−1,98.10%,0.04 hr.^−1,99.10%,0.02 hr.^−1,99.57%,0.01 hr.^−1,Cc1c(OCC(F)(F)F)ccnc1C[S+]([O-])c1nc2ccccc2[nH]1 (centres unmarked) [lansoprazole],–

# Source: patent US20100234430A1, “METHODS AND PHARMACEUTICAL FORMULATIONS FOR PROTECTING PHARMACEUTICAL COMPOUNDS FROM ACIDIC ENVIRONMENTS” (priority 2001, published 2010)
